Experimental findings from PMC7504818, “Synthetic Analogues of Aminoadamantane as Influenza Viral Inhibitors—In Vitro, In Silico and QSAR Studies” (Molecules, 2020) are described below.

Like-named read-outs stand apart in the source and are kept apart here.

Series [1] concerns influenza virus A/H3N2, strain Hong Kong 68. As to the kind of experiment: Antiviral activity against influenza virus A/H3N2, strain Hong Kong 68 (crystal violet uptake assay in MDCK cells). Type of series: cell-based. The note with it: for Active: experimental class, active if IC50 < 30 μM. How it is done: The synthesized compounds were tested for antiviral activity against the influenza virus A/H3N2, strain Hong Kong 68.
In order to identify new potential antiviral drugs, small amounts of extracts or compounds have to be examined for cytotoxicity and antiviral activity in primary screening using a rapid, easy, inexpensive and highly standardized test system. The cytotoxic and the antiviral effects were quantified using a crystal violet uptake assay allowing automated handling of large numbers of candidate agents. […] Madin-Darby Kanine Kidney Cells (MDCK) cells were seeded at 2 × 10^4 cells per well in 96-well flat-bottomed microtiter plates (Falcon 3075). The cytotoxicity of the test compounds was determined on 2-day-old confluent MDCK cell monolayers grown in the internal 60 wells (5% CO2, 37 °C). After removal of the growth medium, two-fold dilutions of the compounds in 100 µL test medium were added and incubated at 37 °C in a 5% CO2 atmosphere for 72 h. Cells in six wells without compound treatment served as basic controls. The Dynex Immuno Assay System (DIAS, Guernsey, UK) developed for automated ELISA techniques was applied to wash gently, stain, measure and analyze the viability of the cell monolayers in cytotoxic, as well as antiviral assays. The staining procedure undertaken with crystal violet was based on the principles described by Nain et al. for the determination of the cytotoxic activity of TNF-α [20]. At first, the supernatant was aspirated and the cell monolayers were washed three times with […] physiological sodium chloride solution to remove dead cells. Secondly, the cells were fixed and stained in one step with 50 µL of 0.03% crystal violet (w/v) in 20% methanol for 10 min. […] Then the optical density of individual wells was quantified spectrophotometrically at 540/630 nm and analyzed with the DIAS. Cell viability was evaluated as the percentage of the mean value of optical density, resulting from the six cell controls, which was set 100%. The 50% cytotoxic concentrations (CC50) were calculated from the mean dose–response curves of three assays each with two parallels.
To exclude non-specific antiviral activities of test compounds, their cytotoxic effects have to be determined not only on confluent cell monolayers but also on proliferating cell cultures in the primary antiviral screening. The cytotoxicity and the growth inhibition of compounds were quantified using an automated crystal violet staining procedure and the electronic cell analyzer system CASY 1, respectively, on day 3 after compound application. The 50% cytotoxic and growth inhibition concentrations were calculated from the mean dose–response curve (3.9 through 1000 µg mL^−1; dilution factor 2) of three separate experiments each with two parallels in the indicated cell lines.

The next series can be described thus: in vitro. The note with it: dog.
For a further series, the system named is MDCK cells. The note with it: for HNTC (μM) MDCK Cells: high-nontoxic concentration; for CC50: read-out: CC50 (μM) MDCK Cells, 50% cytotoxic concentration, confluent MDCK monolayers, 72 h.
The mark [2] stands for this setting: Influenza A virus, H3N2, MDCK, read-out: IC50 (μM) Against A/Hong Kong/68.
Setting [3] is: MDCK, Table 4, against A/Hong Kong/68, QSAR numbering, read-out: IC50.
[4] abbreviates: influenza A/H3N2 Hong Kong/68, read-out: IC50 (μM) Against A/Hong Kong/68.
Where [5] appears, read: Table 4, against A/Hong Kong/68, QSAR numbering, read-out: IC50.

For `NC12CC3CC(CC(C3)C1)C2` [Amantadine, reference compound], the IC50 in series [1] (setting [2]) and in series [1] (setting [3]) was 0.39 µM each time. Besides, the Active result in series [1] is reported as “Yes (Active compound only if IC50 < 30 μM)”. This compound gave a CC50 in “in vitro” of over 100 µM.

As for `CC(N)C(=O)NC(C)C12CC3CC(CC(C3)C1)C2` (stereo not shown) [Compound 4a, Ala-Rimantadine], in series [1] (setting [2]), the IC50 is 1.53 µM. Further, the “HNTC (μM) MDCK Cells” value in the series on MDCK cells was found to be 14.65 µM. The compound also displayed a CC50 in “in vitro” of over 100 µM.

`CCC(C)C(N)C(=O)NC(C)C12CC3CC(CC(C3)C1)C2` (stereo not shown) [Compound 4c, Ile-Rim]: the “HNTC (μM) MDCK Cells” value in the series with MDCK cells was 5.33 µM. Moreover, the CC50 in the series “in vitro” was found to be 58.4 µM.

For `CC(C)CC(N)C(=O)NC(C)C12CC3CC(CC(C3)C1)C2` (stereo not shown) [Compound 4d, Leu-Rim], the IC50 in series [1] (setting [2]) turned out to be 0.75 µM. The “HNTC (μM) MDCK Cells” value in the series on MDCK cells worked out at 11.66 µM. This compound gave a CC50 in “in vitro” of over 100 µM.

As for `CC(NC(=O)C(N)Cc1ccccc1)C12CC3CC(CC(C3)C1)C2` (stereo not shown) [Compound 4e, Phe-Rim], the “HNTC (μM) MDCK Cells” value in the series on MDCK cells turned out to be 4.75 µM. In addition, in “in vitro”, the CC50 turned out to be 21.9 µM.

With `CC(NC(=O)[C@H](N)Cc1ccc(F)cc1)C12CC3CC(CC(C3)C1)C2` (stereo partly drawn) [Compound 4f, (4-F)-D-Phe-Rim], in the series with MDCK cells, the “HNTC (μM) MDCK Cells” value is 6.23 µM. This compound also had a CC50 in “in vitro” of 19.9 µM.

As for `CC(NC(=O)C(N)Cc1ccc(F)cc1)C12CC3CC(CC(C3)C1)C2` (stereo not shown) [Compound 4g, (4-F)-Phe-Rim], the “HNTC (μM) MDCK Cells” value in the series with MDCK cells worked out at 4.37 µM. Moreover, the CC50 in “in vitro” came out at 15.5 µM.

Regarding `CC(C)C(N)C(=O)NC(C)C12CC3CC(CC(C3)C1)C2` (stereo not shown) [Compound 4h, Val-Rim], the “HNTC (μM) MDCK Cells” value in the series with MDCK cells was 10.2 µM. The compound also displayed a CC50 in the series “in vitro” of 70.3 µM.

For `CC(NC(=O)CCN)C12CC3CC(CC(C3)C1)C2` (stereo not drawn) [Compound 4i, β-Ala-Rimantadine], the IC50 in series [1] (setting [2]) turned out to be 15.7 µM. Moreover, the “HNTC (μM) MDCK Cells” value with MDCK cells was found to be 20.78 µM. Also, the CC50 in the series “in vitro” was over 100 µM.

Take `CC(NC(=O)C(N)Cc1ccc(O)cc1)C12CC3CC(CC(C3)C1)C2` (stereo not shown) [Compound 4j, Tyr-Rimantadine]: in series [1] (setting [2]), the IC50 was 0.52 µM. In the series with MDCK cells, the “HNTC (μM) MDCK Cells” value is 9.97 µM. The compound also registered a CC50 in the series “in vitro” of over 100 µM.

`CC(N)C(=O)NC12CC3CC(CC(C3)C1)C2` (stereo not shown) [Compound 5a, Ala-Amantadine]: the IC50 in series [1] (setting [2]) and in series [1] (setting [3]) was 1.41 µM throughout. For the same compound, in series [1], the Active result is reported as “Yes (Active compound only if IC50 < 30 μM)”. For the same compound, the “HNTC (μM) MDCK Cells” value in the series with MDCK cells was over 100 µM. In “in vitro”, the CC50 is over 100 µM.

As to `NC(Cc1ccccc1)C(=O)NC12CC3CC(CC(C3)C1)C2` (stereo not shown) [Compound 5e, phenylalanyl-amantadine], the IC50 in series [1] (setting [2]) and in series [1] (setting [3]) was 0.75 µM each time. The Active entry in series [1] was “Yes (Active compound only if IC50 < 30 μM)”. Also, in the series with MDCK cells, the “HNTC (μM) MDCK Cells” value turned out to be 15.1 µM. Besides, the CC50 in “in vitro” came out at 89.4 µM.

As to `NC(Cc1ccc(F)cc1)C(=O)NC12CC3CC(CC(C3)C1)C2` (stereo not shown) [Compound 5g, (4-F)-phenylalanyl-amantadine], the IC50 in series [1] (setting [2]) and in series [1] (setting [3]) was 0.81 µM in each case. In addition, in series [1], the Active entry is “Yes (Active compound only if IC50 < 30 μM)”. In addition, in the series on MDCK cells, the “HNTC (μM) MDCK Cells” value came out at 15.35 µM. The same compound returned a CC50 in “in vitro” of 83.6 µM.

For the compound `CC(C)C(N)C(=O)NC12CC3CC(CC(C3)C1)C2` (stereo not shown) [Compound 5h, Val-Amantadine], the IC50 in series [1] (setting [2]) and in series [1] (setting [3]) was 1.32 µM each time. In series [1], the Active entry is “Yes (Active compound only if IC50 < 30 μM)”. Also, the “HNTC (μM) MDCK Cells” value with MDCK cells was over 100 µM. Besides, the CC50 in the series “in vitro” was over 100 µM.

Take `CC(NC(=O)[C@H](C)NC(=N)N)C12CC3CC(CC(C3)C1)C2` (stereo partly drawn) [Compound 6a, Gua-Ala-Rim]: the IC50 in series [1] (setting [4]) stood at 41.9 µM. Besides, in the series on MDCK cells, the “HNTC (μM) MDCK Cells” value is over 100 µM and the CC50 is over 100 µM.

Turning to `CC(NC(=O)CCNC(=N)N)C12CC3CC(CC(C3)C1)C2` (stereo not drawn) [Compound 6i, Gua-β-Ala-Rim], in the series on MDCK cells, the “HNTC (μM) MDCK Cells” value was over 100 µM and the CC50 was over 100 µM.

As for `CC(NC(=O)[C@H](Cc1ccc(O)cc1)NC(=N)N)C12CC3CC(CC(C3)C1)C2` (stereo partly drawn) [Compound 6j, Gua-Tyr-Rim], the IC50 in series [1] (setting [4]) is 8.19 µM. Also, in the series on MDCK cells, the “HNTC (μM) MDCK Cells” value is 36.69 µM and the CC50 is over 100 µM.

In the case of `C[C@H](NC(=N)N)C(=O)NC12CC3CC(CC(C3)C1)C2` [Compound 7a, Gua-Ala-Am], the IC50 in series [1] (setting [5]) and in series [1] (setting [4]) was 18.4 µM each time. Besides, the Active result in series [1] is reported as “Yes (Active compound only if IC50 < 30 μM)”. Moreover, the “HNTC (μM) MDCK Cells” value in the series with MDCK cells is over 100 µM. Further, the CC50 in the series with MDCK cells is over 100 µM.

Consider `CC(C)[C@H](NC(=N)N)C(=O)NC12CC3CC(CC(C3)C1)C2` [Compound 7h, Gua-Val-Am], for which the IC50 in series [1] (setting [5]) turned out to be 17.1 µM. In addition, the Active entry in series [1] is on record as “Yes (Active compound only if IC50 < 30 μM)”. In addition, the IC50 in series [1] (setting [4]) came out at 17.1 µM. In the series with MDCK cells, the “HNTC (μM) MDCK Cells” value is over 100 µM and the CC50 was over 100 µM.

Take `CCOC(=O)C1=C[C@@H](OC(CC)CC)[C@H](NC(C)=O)[C@@H](N)C1` [Oseltamivir, reference compound]: in series [1] (setting [2]), the IC50 came out at 0.002 µM. In addition, the “HNTC (μM) MDCK Cells” value in the series with MDCK cells is over 100 µM. In addition, the CC50 in the series “in vitro” was over 100 µM.
